Legend:
[1] = Stability in simulated gastric fluid (SGF); assay type: in vitro ADME; conditions: SGF pH 1.2, 37° C., 2 μM
Method: The stability of compounds 1 to 4, and the control compound omeprazole, were measured in simulated gastric fluid (SGF: 0.2% w/v sodium chloride, 0.7% v/v hydrochloric acid, and 0.32% w/v pepsin in deionized water, pH 1.2±0.05). Stock solutions of the compounds (10 mM) were diluted to 200 μM in DMSO, then duplicate 2 μL aliquots added to 96-well plates for time points 0, 1, 2, 6, and 24 hours. SGF (198 μL) was added to all wells except those for time 0, to give a starting compound concentration of 2 μM; and the samples were incubated at 37° C. with agitation at 600 rpm for the prescribed times. After incubation, 200 μL of each sample was extracted and mixed with 400 μL cold ACN containing 200 ng/mL tolbutamide and labetalol as internal standards. The samples were centrifuged at […] for 20 minutes at 4° C., and the supernatants (60 μL) each diluted with purified water (180 μL) for LC/MS/MS analysis. The percentage of the test compound remaining at each time point was calculated based on the ratio of the peak area of the analyte to the internal standards.

[2] = Pharmacokinetics in the rat, dosing in solution; conditions: rat, in vivo, 25 mg/kg
[3] = system: 16 month-old mice; assay: 16 month-old mice with 7-day osmotic pumps; assay type: in vivo, mouse
Method: Three groups of 16 month-old mice were implanted with 7-day osmotic pumps dispensing vehicle, 0.24 mg/Kg/day, and 2.4 mg/Kg/day of compound 2. All three groups of animals lost ˜1% of body weight over the 7 days.

[4] = system: chondrocyte pellets differentiated from human mesenchymal stem cells (MSCs); assay: Mini-joint model, IL-1β inflamed chondrocyte pellets, PCR analysis; assay type: cell-based; conditions: up to 5 μM with 0.01 ng/mL IL-1β for 3 days
Method: In the mini-joint model, human mesenchymal stem cells (MSCs) were differentiated into chondrocytes in pellet culture over a period of 3 weeks. The chondrocyte pellets were then maintained in a medium containing 0.5 ng/mL of TGF-β for 1 week. Inflammation was induced by treating the pellets with 1 ng/mL of IL-1β for 1 day. Following this, the pellets were treated with compound 2 at up to 5 μM together with 0.01 ng/mL of IL-1β to sustain the inflammatory environment for 3 days. At the conclusion of the treatment, the pellets were collected for PCR analysis.

[5] = system: mice with cerulein-induced chronic pancreatitis; assay: Cerulein model of chronic pancreatitis (CP); assay type: in vivo, mouse; conditions: 100 mg/Kg daily on the last 4 weeks
Method: Using the cerulein model, acute edematous pancreatitis was induced in two test groups of mice by eight hourly intraperitoneal injections of 50 μg/Kg cerulein, with control group mice receiving injections of physiological saline. Compound 2, at 100 mg/Kg, was administered to one of the cerulein groups by gavage 30 minutes after the first and fourth cerulein injections. Mice were sacrificed one hour after the last injection and tissues were collected for histological analysis. […] Recurrent acute pancreatitis (RAP) and chronic pancreatitis (CP) were induced by repetitive cerulein injections every third day over a span of 14 days (RAP) or 6 weeks (CP). Compound 2 was administered daily at 50 mg/Kg on the last 10 consecutive days for RAP and at 100 mg/Kg on the last 4 weeks for CP, with vehicle controls. Mice were sacrificed 1 day after the last cerulein injection and tissues were collected for histological analysis. In the CP model, the cerulein injections induced extensive acinar cell damage.

[6] = system: Dp16 mice; assay: Dp16 mouse model of Down syndrome challenged with poly(I:C); assay type: in vivo
Source text: Waugh et al., “Triplication of the interferon receptor locus contributes to hallmarks of Down syndrome in a mouse model”, Nat. Genet., 55, 1034-1047 (2023), note that the B6.129S7-Dp(16Lipi-Zbtb21)1Yey/J mouse model of DS, sometimes referred to as the Dp16 mouse, carries a segmental duplication of mouse chromosome 16 causing triplication of ˜120 protein-coding genes orthologous to those on human chromosome 21, including the Ifnr cluster; and that Dp16 mice display key phenotypes of DS including hyperactive IFN signaling, a dysregulated antiviral response, increased prevalence of heart defects, developmental delays, cognitive impairments and craniofacial anomalies. The TLR3 agonist polyinosinic-polycytidylic acid, poly(I:C), is an innate immune stimulus known to trigger an IFN response. Three groups of Dp16 mice were dosed from day ˜7 through 10 by gavage at 10 mg/Kg, twice/day for the first 5 days and once/day thereafter, with vehicle (2 groups) or compound 2 in vehicle (1 group), and one of the vehicle groups and the compound 2 group were dosed by injection with poly(I:C) on day 7, while the other vehicle group was given a sham injection. Treatment with compound 2 ameliorated the increased expressions of cytokines, IFNα and […], TNF-α, IL-2, -5, -6, -10, and -12P70, and attenuated the inflammatory response, including ameliorating the skin thickening, induced by Poly(I:C) in these Dp16 mice. Transcriptome analysis of liver samples identified gene sets substantially dysregulated in the Dp16 mice and attenuated by treatment with compound 2; including signatures of increased cell proliferation (E2F targets and G2/M checkpoint), increased JAK/STAT and interferon signaling, and decreased fatty acid metabolism. The genistein phosphate derivatives of this invention are therefore expected to be useful for the treatment of subjects with Down syndrome.

[7] = system: patients with moderate to severe rheumatoid arthritis; assay: Randomized, double-blind, placebo-controlled study in rheumatoid arthritis; assay type: in vivo, human; conditions: oral 500 mg capsule once daily for 24 weeks; expected
Method: Approximately 120 patients, ages 30-65, diagnosed with rheumatoid arthritis according to the 2010 ACR/EULAR classification criteria, are enrolled in a randomized, double-blind, placebo-controlled study to evaluate the efficacy of compound 2 in patients with moderate to severe rheumatoid arthritis. Participants are randomized to receive either oral compound 2 (500 mg capsule) or placebo once daily for a period of 24 weeks. The primary efficacy endpoint is the improvement in the Disease Activity Score-28 (DAS28) with C-reactive protein (CRP) at week 24. A clinically meaningful reduction in DAS28 score is defined as a reduction of ≥1.2 points from baseline. Secondary endpoints include: Improvement in physical function as measured by the Health Assessment Questionnaire Disability Index (HAQ-DI), reduction in morning stiffness and joint pain, and changes in levels of inflammatory cytokines such as TNF-α, IL-6, and IL-1β. […] Additionally, compound 2 is expected to reduce serum levels of pro-inflammatory cytokines and markers of joint damage such as matrix metalloproteinases (MMPs), thus providing evidence of its disease-modifying effects.

[8] = 0.24 and 2.4 mg/Kg/day, 7-day osmotic pumps

O=c1c(-c2ccc(O)cc2)coc2cc(OCOP(=O)(O)O)cc(O)c12 [Compound 2, ((5-Hydroxy-3-(4-hydroxyphenyl)-4-oxo-4H-chromen-7-yl)oxy)methyl dihydrogen phosphate]
Percentage remaining at time: 1 hour ([1]; 1 hour): 100% | Percentage remaining at time: 2 hours ([1]; 2 hours): 104% | Percentage remaining at time: 6 hours ([1]; 6 hours): 116% | Percentage remaining at time: 24 hours ([1]; 24 hours): 113% | Percentage remaining at time: 0 ([1]; time 0): 100% | Cmax ([2]; male, SD): ~30 ng/mL | Tmax ([2]; male, SD): ~8 min | decline of plasma concentration of dosed compound [2]: very rapid decline in concentration | fasting blood glucose relative to the control group ([3]; 2.4 mg/Kg/day group): significant decrease | body weight lost over the 7 days ([3]; 0.24 and 2.4 mg/Kg/day groups (same as vehicle group)): ~1% | IL-13 blood levels [3, 8]: reduced in a dose-dependent manner | Leptin blood levels [3, 8]: reduced in a dose-dependent manner | fasting blood glucose relative to the control group ([3]; both treatment groups, 0.24 and 2.4 mg/Kg/day, 7-day osmotic pumps): lowered | COL2 expression [4]: increasing | MMP12 expression [4]: decreasing | TNF-α expression [4]: decreasing | chondrogenesis (expression of collagen A) [4]: promote | overall outcome over untreated mice (histology) [5]: marked improvement | acinar cell death ([5]; vs untreated group): significant reduction | acinar cell density ([5]; vs untreated group): increase | inflammatory response induced by Poly(I:C) ([6]; 10 mg/Kg by gavage): attenuated | skin thickening induced by Poly(I:C) ([6]; 10 mg/Kg by gavage): ameliorating | increased expressions of cytokines, IFNα and […], TNF-α, IL-2, -5, -6, -10, and -12P70 ([6]; 10 mg/Kg by gavage, twice/day first 5 days then once/day, poly(I:C) injection): ameliorated | dysregulated liver gene sets (cell proliferation, JAK/STAT and interferon signaling, fatty acid metabolism) ([6]; transcriptome analysis of liver samples): attenuated | serum levels of pro-inflammatory cytokines [7]: reduce
